Measured values: US7749760B2, “Vγ9Vδ2 T cell proliferation agent, method for producing activated Vγ9Vδ2 T cells, and uses thereof” (Hyogo College of Medicine, priority 2008, dated 2010)

Test system: Vγ9Vδ2 T cells
Assay: Production of IFN-γ, TNF and GM-CSF, ELISA of culture supernatants
Assay type: cell-based, human
Description: Supernatants of the culture solutions having various conditions under which Vγ9Vδ2 T cells were cultured were assayed by ELISA so that the production of cytokines (e.g., IFN-γ, TNF, GM-CSF) was measured.
The Vγ9Vδ2 T cells were restimulated both in the presence of IL-18 and in the absence of IL-18. After 24 hours, a supernatant of the culture solution containing IL-18 and a supernatant of the culture solution devoid of IL-18 were compared. In this case also, the result obtained was similar to the above.

[1] = purified activated Vγ9Vδ2 T cells restimulated, 24 hours

Substance: IL-18: interleukin 18, cytokine, IFN-γ inducing factor, obtained from GlaxoSmithKline K.K.
- production of GM-CSF, supernatant supplemented with IL-18 versus without (data not shown): about 10 times
- production of IFN-γ, presence versus absence of IL-18 [1]: far larger production
- production of TNFα, presence versus absence of IL-18 [1]: far larger production
